Experimental data taken from patent US20210246120A1, “METHOD OF PREPARATION AND USE OF PHOSPHOINOSITIDE 3-KINASE INHIBITORS IN TREATING CANCER” (BIOMEDICAL RESEARCH FOUNDATION OF THE ACADEMY OF ATHENS …, priority 2018, published 2021).
Read-outs that look alike come from different tables or passages of the source.

What was measured:
wild type PI3Kα protein = biological target: T1, wild type PI3Kα protein (Homo sapiens, UniProt P42336); test: In vitro cell-free PI3Kα activity assay using PIP2 containing liposomes (wild type); format: biochemical
T1 construct: purchased Millipore
T1 sequence (P42336 whole entry): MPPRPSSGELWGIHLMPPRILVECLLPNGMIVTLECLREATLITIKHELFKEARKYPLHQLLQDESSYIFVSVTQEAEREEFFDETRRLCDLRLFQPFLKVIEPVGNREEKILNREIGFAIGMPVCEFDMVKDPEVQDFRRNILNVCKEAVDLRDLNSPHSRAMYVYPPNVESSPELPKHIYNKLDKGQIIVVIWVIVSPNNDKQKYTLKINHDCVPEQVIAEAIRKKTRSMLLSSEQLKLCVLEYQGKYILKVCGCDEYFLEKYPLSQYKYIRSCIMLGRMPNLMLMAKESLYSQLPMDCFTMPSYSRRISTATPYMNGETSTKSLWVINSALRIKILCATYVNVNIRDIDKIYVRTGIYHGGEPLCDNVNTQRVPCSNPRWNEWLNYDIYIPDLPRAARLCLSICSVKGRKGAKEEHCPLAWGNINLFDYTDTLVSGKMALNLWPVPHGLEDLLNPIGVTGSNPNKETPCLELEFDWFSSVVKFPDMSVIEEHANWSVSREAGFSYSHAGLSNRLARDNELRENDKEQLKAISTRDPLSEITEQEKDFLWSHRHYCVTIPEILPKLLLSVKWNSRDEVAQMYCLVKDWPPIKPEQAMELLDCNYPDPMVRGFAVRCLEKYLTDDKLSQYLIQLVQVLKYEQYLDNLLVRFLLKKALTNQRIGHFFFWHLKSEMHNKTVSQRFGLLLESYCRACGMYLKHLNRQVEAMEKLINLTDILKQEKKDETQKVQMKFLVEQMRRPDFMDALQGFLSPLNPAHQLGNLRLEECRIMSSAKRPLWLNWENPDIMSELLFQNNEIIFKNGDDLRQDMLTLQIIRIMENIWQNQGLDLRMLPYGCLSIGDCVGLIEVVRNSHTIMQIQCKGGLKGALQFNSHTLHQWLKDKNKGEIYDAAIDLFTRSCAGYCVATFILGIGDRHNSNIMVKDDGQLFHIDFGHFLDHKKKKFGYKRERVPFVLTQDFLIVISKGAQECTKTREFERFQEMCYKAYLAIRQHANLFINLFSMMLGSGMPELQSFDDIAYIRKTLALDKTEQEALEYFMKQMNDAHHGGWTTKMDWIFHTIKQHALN
T1 sequence (P27986 whole entry partner): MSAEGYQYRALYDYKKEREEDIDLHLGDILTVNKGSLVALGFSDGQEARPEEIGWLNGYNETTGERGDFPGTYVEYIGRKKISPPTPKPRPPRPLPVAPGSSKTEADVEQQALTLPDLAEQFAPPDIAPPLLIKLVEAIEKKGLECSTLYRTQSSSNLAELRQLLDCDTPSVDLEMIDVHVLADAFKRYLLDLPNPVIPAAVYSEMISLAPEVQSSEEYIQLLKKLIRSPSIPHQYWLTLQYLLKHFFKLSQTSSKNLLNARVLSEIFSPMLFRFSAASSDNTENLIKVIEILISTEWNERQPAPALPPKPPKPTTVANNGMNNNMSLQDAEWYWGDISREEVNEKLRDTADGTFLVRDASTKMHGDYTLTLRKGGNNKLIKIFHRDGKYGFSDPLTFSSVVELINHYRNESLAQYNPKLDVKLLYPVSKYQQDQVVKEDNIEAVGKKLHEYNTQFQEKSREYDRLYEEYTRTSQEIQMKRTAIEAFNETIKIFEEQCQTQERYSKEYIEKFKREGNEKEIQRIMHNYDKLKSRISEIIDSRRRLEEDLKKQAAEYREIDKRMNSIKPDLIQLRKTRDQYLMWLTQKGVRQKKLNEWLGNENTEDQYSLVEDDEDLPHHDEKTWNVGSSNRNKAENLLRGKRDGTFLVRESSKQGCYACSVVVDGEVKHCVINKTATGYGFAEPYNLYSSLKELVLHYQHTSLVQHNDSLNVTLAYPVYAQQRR

[1] = biological target: T2, mutant PI3Kα H1047R protein (Homo sapiens, UniProt P42336, H1047R); test: In vitro cell-free PI3Kα activity assay using PIP2 containing liposomes (H1047R mutant); format: biochemical; details: for IC50: logit-log plots, PIP2 liposomes; for Inhibition selectivity for mutant PI3Kα H1047R compared to wild-type PI3Kα: ratio of IC50 WT / H1047R
T2 construct: purchased Millipore
T2 sequence (P42336 whole entry H1047R): as the sequence (P42336 whole entry) above, with H1047R counted along it
T2 sequence (P27986 whole entry partner): as the sequence (P27986 whole entry partner) above
Protocol: PI3Kα activity assays on the identified lead compound and its analogs were performed using PIP2 containing liposomes (Gkeka et al., PLoS Comput Biol 10:e1003895 (2014)). Complexes of PIK3CA (WT or […])/PIK3R1 were obtained from Millipore. The assay was based on a protocol provided by Millipore, with modifications (Papafotika et al., in preparation) which will be further described below. In this assay, PIP3 molecules produced by PI3Kα compete with biotinylated PIP3 for binding with a recombinant GST-GRP1-PH domain (amino acids 263-380), which has been produced in bacteria, bound to glutathione coated 96-well plates. Quantitation of the competed amount of biotin-PIP3 is estimated by the peroxidase activity of streptavidin-HRP that binds to the plate and provides a measure for the activity of the protein. The compounds were preincubated with all the components of the assay mixture, except PIP2, for 10 min, at 25° C. PIP2 is added in the end of the preincubation period, thereby initiating the kinase reaction. IC50 values were calculated from dose-response curves using logit-log plots. All assays were carried out in at least three independent experiments and each concentration in triplicate. PIK-108 and wortmannin were used as controls (Gkeka et al., J Phys Chem B 119:1002-1016 (2015)).
To evaluate the in vitro activity of the compound having the formula (II) (PI3K-010), PI3Kα activity assays were performed using PIP2 containing liposomes (Gkeka et al PLOS Comp Biol 2014). In this assay, PIP3 molecules produced by PI3Kα compete with biotinylated PIP3 for binding to recombinant GST-GRP1-PH domain (amino acids 263-380), which has been produced in bacteria, bound to glutathione coated 96-well plates. Quantitation of the competed amount of biotin-PIP3 is estimated by the peroxidase activity of streptavidin-HRP that binds to the plate and provides a measure for the activity of the protein. The compounds were preincubated with all the components of the assay mixture, except PIP2, for 10 min, at 25° C. […]
(§1) To evaluate the in vitro activity of the compound having the formula (III) (PI3K-010), PI3Kα activity assays were performed using PIP2 containing liposomes (Gkeka et al PLOS Comp Biol 2014). […] Quantitation of the competed amount of biotin-PIP3 is estimated by the peroxidase activity of streptavidin-HRP that binds to the plate and provides a measure for the activity of the protein. […]
as §1, with “(IV) (PI3K-024),” for “(III) (PI3K-010),”

[2] = system: breast cancer in WAPCre/exon20 Pik3ca*/MMTV-Myc mouse; test: Micro PET/CT imaging and Ki67 immunohistochemistry of breast tumors in WAPCre/exon20 Pik3ca*/MMTV-Myc mouse; format: in vivo
Excerpt: In order to test the in vivo activity of potential anticancer drugs, establishing a corresponding cancer animal model is required. To generate mouse tumors at chosen anatomical sites, a variant of a genetic scheme that is based on Cre/loxP recombination is often used. Depending on the tissue-specificity of the promoter driving Cre expression, corresponding tumors develop in progeny derived from matings between Cre-producer mice and Cre-responder partners carrying a dormant oncogenic transgene, which becomes functional after excision of an upstream-positioned floxed DNA segment that blocks its expression [see Politi et al. Oncogene 23:1558-1565 (2004); Klinakis et al. Proc Natl Acad Sci USA 106:2359-2364 (2009), Stratikopoulos et al. Cancer Cell 27:837-851 (2015)). To develop mouse strains carrying Pik3ca gain of function mutations (hereafter referred to as Pik3ca*), a knock-in gene targeting strategy was followed (Stratikopoulos et al. Cancer Cell 27:837-851 (2015)). Thus, either of the two hotspot mutations of the Pik3ca locus (in exon 20 or in exon 9) was targeted so that the mutated Pik3ca would be expressed from the endogenous locus and not from a transgene, thus, mimicking the expression found in human tumors. Activation of the exon 20 Pik3ca oncogenic mutation was achieved after mating the animals with WAPCre producers (WAP is a milk protein, the promoter of which is used for driving Cre expression, specifically in the mammary gland). Mammary tumors appeared in such animals after a very long latency of 490 days (median). […] These mice were used to test the efficacy of compounds discussed herein.
FIG. 6. Example of micro PET/CT imaging of WAPCre/exon20 Pik3ca*/MMTV-Myc mouse (compared with a negative wild-type control) at the beginning and end of treatment (one month) of breast cancer with the PI3K-010 compound.
PET/CT images of a WAPCre/exon20 Pik3ca*/MMTV-Myc mouse were acquired at the beginning and end of treatment ([…]) of breast cancer with the PI3K-010 compound (cf. FIG. 6). The compound was administered per os (by gavage) at 100 mg/Kg doses. […]

IC50 (wild type PI3Kα protein; logit-log plots, 100 μM ATP, PIP2 liposomes, read-out: IC50 against WT PI3Kα) [µM]	IC50 ([1]; 100 μM ATP, read-out: IC50 against mutant H1047R PI3Kα) [µM]	IC50 (wild type PI3Kα protein; extrapolated, very low inhibition at the highest tested concentrations, read-out: IC50 for the WT PI3Kα, estimated by extrapolation) [µM]	IC50 ([1]; read-out: IC50 for the mutant H1047R PI3Kα) [µM]	Inhibition selectivity for mutant PI3Kα H1047R compared to wild-type PI3Kα [1] [fold]	SMILES	Proliferation index (Ki67 immunohistochemistry) after treatment ([2]; 100 mg/Kg per os by gavage, surgically removed breast tumors, controls 69.9+5.1%)	Uptake of 18F-FDG by remnants of breast cancer (PET/CT) ([2]; 100 mg/Kg per os, beginning vs end of treatment (two weeks))	Immunohistochemical analysis: tumor necrosis after treatment ([2]; 100 mg/Kg per os, in comparison with the controls)
0.006	0.064				O=C(Nc1cccc(O)c1)c1cccc(C(=O)Nc2cccc(O)c2)n1 [PI3K-024, N^2,N^6-bis(3-hydroxyphenyl)pyridine-2,6-dicarboxamide]			
		> 1000	13.5	> 100	O=C(NCc1ccccc1)c1cccc(C(=O)NCc2ccccc2)n1 [PI3K-021, N^2,N^6-dibenzylpyridine-2,6-dicarboxamide]			
				11	c1cc(CSc2nc3ccccc3[nH]2)nc(CSc2nc3ccccc3[nH]2)c1 [PI3K-010, 2,6-bis(((1H-benzo[d]imidazol-2-yl)thio)methyl)pyridine]	15.0+3.3%	diminished uptake	tumor necrosis
